Assays:
Conditions in all cases: binder
STLK3 = STLK3 (Homo sapiens, UniProt Q9UEW8)
Haspin = target: T1, Haspin (Homo sapiens, UniProt Q8TF76)
T1 sequence (Q8TF76 1-798): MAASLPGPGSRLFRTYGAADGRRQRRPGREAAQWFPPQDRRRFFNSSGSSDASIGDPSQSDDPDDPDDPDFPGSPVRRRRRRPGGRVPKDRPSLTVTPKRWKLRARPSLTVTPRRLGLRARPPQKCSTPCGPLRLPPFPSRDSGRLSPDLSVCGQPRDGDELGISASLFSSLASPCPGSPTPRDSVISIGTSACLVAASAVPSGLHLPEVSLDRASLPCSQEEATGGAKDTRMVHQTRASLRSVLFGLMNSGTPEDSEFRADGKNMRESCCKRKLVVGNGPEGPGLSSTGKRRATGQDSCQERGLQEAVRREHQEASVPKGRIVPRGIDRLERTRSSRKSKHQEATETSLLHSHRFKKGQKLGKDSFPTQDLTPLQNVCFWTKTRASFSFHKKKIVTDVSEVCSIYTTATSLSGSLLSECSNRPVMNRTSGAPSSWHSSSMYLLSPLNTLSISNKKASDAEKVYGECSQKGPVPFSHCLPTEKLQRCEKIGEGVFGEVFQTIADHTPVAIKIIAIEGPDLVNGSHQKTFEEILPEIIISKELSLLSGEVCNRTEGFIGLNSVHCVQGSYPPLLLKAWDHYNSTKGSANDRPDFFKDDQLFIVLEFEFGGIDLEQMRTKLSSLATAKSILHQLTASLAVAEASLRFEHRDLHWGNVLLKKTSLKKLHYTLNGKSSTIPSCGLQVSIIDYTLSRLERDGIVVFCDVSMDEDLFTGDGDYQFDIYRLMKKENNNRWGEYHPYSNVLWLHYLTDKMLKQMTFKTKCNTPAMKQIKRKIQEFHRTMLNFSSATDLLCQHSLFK

JNK3 = JNK3 (Homo sapiens, UniProt P53779)
BRPF1 = target: T2, BRPF1 (Homo sapiens, UniProt P55201)
T2 sequence (P55201 1-1214): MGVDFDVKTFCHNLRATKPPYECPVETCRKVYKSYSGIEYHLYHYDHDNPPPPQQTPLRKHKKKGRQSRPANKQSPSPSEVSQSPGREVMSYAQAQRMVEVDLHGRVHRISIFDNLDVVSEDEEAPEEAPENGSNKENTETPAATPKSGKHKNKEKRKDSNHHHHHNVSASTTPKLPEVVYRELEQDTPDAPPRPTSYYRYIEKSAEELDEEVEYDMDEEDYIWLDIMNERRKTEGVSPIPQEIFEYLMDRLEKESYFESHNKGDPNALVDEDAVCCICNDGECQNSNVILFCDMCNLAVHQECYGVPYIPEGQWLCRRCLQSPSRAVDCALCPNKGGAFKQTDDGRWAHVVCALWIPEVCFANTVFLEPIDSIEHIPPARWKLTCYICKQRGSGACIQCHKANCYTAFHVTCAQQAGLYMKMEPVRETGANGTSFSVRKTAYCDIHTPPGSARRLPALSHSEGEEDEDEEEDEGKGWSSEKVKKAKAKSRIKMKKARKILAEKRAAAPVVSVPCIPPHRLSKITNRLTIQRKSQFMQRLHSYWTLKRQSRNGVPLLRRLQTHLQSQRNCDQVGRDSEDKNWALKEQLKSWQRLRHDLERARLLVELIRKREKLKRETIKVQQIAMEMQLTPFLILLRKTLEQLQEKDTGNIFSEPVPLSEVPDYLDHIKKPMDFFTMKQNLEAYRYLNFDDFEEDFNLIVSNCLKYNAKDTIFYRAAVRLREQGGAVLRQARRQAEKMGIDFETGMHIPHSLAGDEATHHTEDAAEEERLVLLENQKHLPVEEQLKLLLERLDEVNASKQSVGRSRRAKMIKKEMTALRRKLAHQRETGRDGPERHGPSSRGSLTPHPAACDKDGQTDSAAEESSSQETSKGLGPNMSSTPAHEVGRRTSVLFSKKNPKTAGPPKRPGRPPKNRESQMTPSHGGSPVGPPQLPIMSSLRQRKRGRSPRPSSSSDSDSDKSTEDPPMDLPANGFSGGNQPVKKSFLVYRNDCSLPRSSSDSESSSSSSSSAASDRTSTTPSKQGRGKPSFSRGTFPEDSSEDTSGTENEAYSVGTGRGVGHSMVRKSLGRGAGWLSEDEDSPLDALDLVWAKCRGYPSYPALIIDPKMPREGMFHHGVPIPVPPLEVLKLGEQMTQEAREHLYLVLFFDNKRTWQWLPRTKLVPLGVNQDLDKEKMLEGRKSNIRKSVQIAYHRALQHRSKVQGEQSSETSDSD

MAP2K6 = target: T3, MAP2K6 (Homo sapiens, UniProt P52564)
T3 sequence (P52564 1-334): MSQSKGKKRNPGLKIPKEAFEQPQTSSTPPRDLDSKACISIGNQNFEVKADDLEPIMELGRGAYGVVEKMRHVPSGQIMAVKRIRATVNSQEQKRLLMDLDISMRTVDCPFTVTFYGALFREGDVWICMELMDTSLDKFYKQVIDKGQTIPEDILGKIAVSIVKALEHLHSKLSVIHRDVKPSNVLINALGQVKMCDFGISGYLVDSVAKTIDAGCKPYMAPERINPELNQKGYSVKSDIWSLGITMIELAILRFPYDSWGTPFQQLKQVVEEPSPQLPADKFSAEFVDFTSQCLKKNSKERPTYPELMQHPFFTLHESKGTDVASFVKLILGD

OSR1 = OSR1 (Homo sapiens, UniProt O95747)
EphA5 = EphA5 (Homo sapiens, UniProt P54756)
Chain of EphA5 (P54756 whole entry): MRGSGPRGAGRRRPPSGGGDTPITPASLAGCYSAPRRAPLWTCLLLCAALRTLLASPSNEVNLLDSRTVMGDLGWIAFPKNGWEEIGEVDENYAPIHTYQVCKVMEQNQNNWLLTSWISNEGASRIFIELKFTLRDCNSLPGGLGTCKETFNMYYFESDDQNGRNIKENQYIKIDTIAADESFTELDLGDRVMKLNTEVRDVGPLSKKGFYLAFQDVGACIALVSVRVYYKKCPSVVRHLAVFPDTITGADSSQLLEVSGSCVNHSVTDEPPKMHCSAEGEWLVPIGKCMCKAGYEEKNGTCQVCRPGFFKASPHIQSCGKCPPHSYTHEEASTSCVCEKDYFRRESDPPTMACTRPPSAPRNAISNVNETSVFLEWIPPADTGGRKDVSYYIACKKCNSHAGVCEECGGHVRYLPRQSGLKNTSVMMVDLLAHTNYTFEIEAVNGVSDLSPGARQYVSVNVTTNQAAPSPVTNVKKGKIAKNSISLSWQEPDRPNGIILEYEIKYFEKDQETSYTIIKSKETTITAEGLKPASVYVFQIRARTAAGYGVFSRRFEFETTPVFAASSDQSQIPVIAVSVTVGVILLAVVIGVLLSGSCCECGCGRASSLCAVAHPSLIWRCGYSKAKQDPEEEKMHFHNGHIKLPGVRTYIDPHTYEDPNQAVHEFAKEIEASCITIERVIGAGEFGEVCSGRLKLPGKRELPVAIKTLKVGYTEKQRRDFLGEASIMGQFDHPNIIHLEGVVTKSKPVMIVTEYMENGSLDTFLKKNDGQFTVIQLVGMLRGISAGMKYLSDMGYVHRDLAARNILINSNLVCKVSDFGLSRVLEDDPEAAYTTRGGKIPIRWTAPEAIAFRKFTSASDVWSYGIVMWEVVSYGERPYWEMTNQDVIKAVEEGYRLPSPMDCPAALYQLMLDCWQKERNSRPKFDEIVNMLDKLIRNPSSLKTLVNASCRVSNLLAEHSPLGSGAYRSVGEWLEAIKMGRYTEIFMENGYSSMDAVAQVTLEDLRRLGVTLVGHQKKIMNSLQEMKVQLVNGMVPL

Chain of OSR1 (O95747 whole entry): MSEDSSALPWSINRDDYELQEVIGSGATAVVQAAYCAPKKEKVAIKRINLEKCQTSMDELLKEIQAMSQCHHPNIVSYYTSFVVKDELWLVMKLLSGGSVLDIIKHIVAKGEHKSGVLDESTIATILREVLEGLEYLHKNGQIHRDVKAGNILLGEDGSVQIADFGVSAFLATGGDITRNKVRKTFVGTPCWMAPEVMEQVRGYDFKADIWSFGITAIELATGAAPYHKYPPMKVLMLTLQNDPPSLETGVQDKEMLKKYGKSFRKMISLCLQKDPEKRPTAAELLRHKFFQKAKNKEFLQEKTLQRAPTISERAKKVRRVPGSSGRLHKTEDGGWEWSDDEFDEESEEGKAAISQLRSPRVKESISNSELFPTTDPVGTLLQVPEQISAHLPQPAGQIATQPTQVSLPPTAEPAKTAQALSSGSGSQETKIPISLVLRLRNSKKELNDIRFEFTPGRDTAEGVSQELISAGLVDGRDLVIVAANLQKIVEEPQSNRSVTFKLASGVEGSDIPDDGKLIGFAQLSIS
Chain of JNK3 (P53779 whole entry): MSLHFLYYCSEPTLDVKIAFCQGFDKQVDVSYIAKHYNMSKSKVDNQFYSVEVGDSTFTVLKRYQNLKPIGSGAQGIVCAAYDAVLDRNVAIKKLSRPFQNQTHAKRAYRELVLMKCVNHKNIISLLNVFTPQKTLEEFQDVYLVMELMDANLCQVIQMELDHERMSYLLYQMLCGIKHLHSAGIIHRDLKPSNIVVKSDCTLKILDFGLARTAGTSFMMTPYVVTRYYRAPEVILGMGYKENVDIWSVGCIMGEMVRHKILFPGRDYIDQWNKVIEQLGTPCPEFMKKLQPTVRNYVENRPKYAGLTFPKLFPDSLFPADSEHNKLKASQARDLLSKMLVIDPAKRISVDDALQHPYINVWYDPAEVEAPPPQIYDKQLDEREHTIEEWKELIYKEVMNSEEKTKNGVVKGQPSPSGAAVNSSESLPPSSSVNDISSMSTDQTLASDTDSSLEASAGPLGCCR

`Cc1cccc(-c2ccc(-c3cc4cnc(Nc5ccc(F)c(CO)c5)nc4n(CCCCN)c3=O)c(Cl)c2)n1` [compound 33, 8-(4-Aminobutyl)-6-(2-chloro-4-(6-methylpyridin-2-yl)phenyl)-2-((4-fluoro-3-(hydroxymethyl)phenyl)amino)pyrido[2,3-d]pyrimidin-7(8H)-one] was tested, and the “dTm 33” value (STLK3) was 16.8 °C, the “dTm 33” value (Haspin) was -0.2 °C and the “dTm 33” value (JNK3) was 5.2 °C. The “dTm 33” value (BRPF1) was -2.7 °C, the “dTm 33” value (MAP2K6) was 10.2 °C and the “dTm 33” value (OSR1) was 2.4 °C. For the same compound, the “dTm 33” value (EphA5) was 6.8 °C.
With `COc1ccc(O)c(Nc2ncc3cc(-c4ccc(-c5cccc(C)n5)cc4Cl)c(=O)n(CCCCN)c3n2)c1` [compound 34, 8-(4-Aminobutyl)-6-(2-chloro-4-(6-methylpyridin-2-yl)phenyl)-2-((2-hydroxy-5-methoxy-phenyl)amino)pyrido[2,3-d]pyrimidin-7(8H)-one] the “dTm 34” value (STLK3) was 11.0 °C, the “dTm 34” value (Haspin) was -0.2 °C and the “dTm 34” value (JNK3) was 3.0 °C. For the same compound, the “dTm 34” value (BRPF1) was -1.6 °C, the “dTm 34” value (MAP2K6) was 5.4 °C and the “dTm 34” value (OSR1) was 0.4 °C. The “dTm 34” value (EphA5) was 3.2 °C.
`COc1cc(N2CCOCC2)ccc1Nc1ncc2cc(-c3ccc(-c4cccc(C)n4)cc3Cl)c(=O)n(CCCCN)c2n1` [compound 35, 8-(4-Aminobutyl)-6-(2-chloro-4-(6-methylpyridin-2-yl)phenyl)-2-((2-methoxy-4-morpholino-phenyl)amino)pyrido[2,3-d]pyrimidin-7(8H)-one] was tested, and the “dTm 35” value (STLK3) was 13.4 °C, the “dTm 35” value (Haspin) was -0.1 °C and the “dTm 35” value (JNK3) was 2.3 °C. For the same compound, the “dTm 35” value (BRPF1) was -2.8 °C, the “dTm 35” value (MAP2K6) was 6.8 °C and the “dTm 35” value (OSR1) was 2.6 °C. The “dTm 35” value (EphA5) was 4.2 °C.
In the case of `COc1cc(N2CCN(C)CC2)ccc1Nc1ncc2cc(-c3ccc(-c4cccc(C)n4)cc3Cl)c(=O)n(CCCCN)c2n1` [compound 36, 8-(4-Aminobutyl)-6-(2-chloro-4-(6-methylpyridin-2-yl)phenyl)-2-((2-methoxy-4-(4-methylpiperazin-1-yl)phenyl)amino)pyrido[2,3-d]pyrimidin-7(8H)-one], the “dTm 36” value (STLK3) is reported as 9.3 °C, the “dTm 36” value (Haspin) is reported as -0.7 °C and the “dTm 36” value (JNK3) is reported as 1.1 °C. For the same compound, the “dTm 36” value (BRPF1) was -1.2 °C, the “dTm 36” value (MAP2K6) was 4.4 °C and the “dTm 36” value (OSR1) was 3.4 °C. For the same compound, the “dTm 36” value (EphA5) was 3.5 °C.
